biological target: Recombinant human cathepsin A (Homo sapiens (Human), UniProt P10619); experiment: Cathepsin A inhibitory activity (Bodipy FL-labeled bradykinin substrate, microfluidic capillary electrophoresis); type: biochemical; conditions: Cathepsin A inhibitory activity, read-out: CATHA IC50
Description: Pharmacological Tests a) Cathepsin a Inhibitory Activity
Recombinant human cathepsin A (residues 29-480, with a C-terminal 10-His tag; R&D Systems, #1049-SE) was proteolytically activated with recombinant human cathepsin L (R&D Systems, #952-CY). Briefly, cathepsin A was incubated at 10 μg/ml with cathepsin L at 1 μg/ml in activation buffer (25 mM 2-(morpholin-4-yl)-ethanesulfonic acid (MES), pH 6.0, containing 5 mM dithiothreitol (DTT)) for 15 min at 37° C.
The activated cathepsin A was diluted in assay buffer (25 mM MES, pH 5.5, containing 5 mM DTT) and mixed with the test compound (dissolved in assay buffer containing (v/v) 3% DMSO) or, in the control experiments, with the vehicle in a multiple assay plate. After incubation for 15 min at room temperature, as substrate then bradykinin carrying an N-terminal® Bodipy FL (4,4-difluoro-5,7-dimethyl-4-bora-3a,4a-diaza-s-indacene-3-propionyl) label (JPT Peptide Technologies GmbH; dissolved in assay buffer) was added to the mixture. The final concentration of cathepsin A was 833 ng/ml and the final concentration of labeled bradykinin 2 μM. After incubation for 15 min at room temperature the reaction was stopped by the addition of stop buffer (130 mM 2-(4-(2-hydroxy-ethyl)-piperazin-1-yl)-ethanesulfonic acid, pH 7.4, containing (v/v) 0.013%° Triton X-100, 0.13% Coating Reagent 3 (Caliper Life Sciences), 6.5% DMSO and 20 μM ebelactone B (Sigma, #E0886)).
Uncleaved substrate and product were then separated by a microfluidic capillary electrophoresis on a LabChip® 3000 Drug Discovery System (12-Sipper-Chip; Caliper Life Sciences) and quantified by determination of the respective peak areas. Substrate turnover was calculated by dividing product peak area by the sum of substrate and product peak areas, and the enzyme activity and the inhibitory effect of the test compound thus quantified.

Recombinant human cathepsin A, sequence (P10619 29-326): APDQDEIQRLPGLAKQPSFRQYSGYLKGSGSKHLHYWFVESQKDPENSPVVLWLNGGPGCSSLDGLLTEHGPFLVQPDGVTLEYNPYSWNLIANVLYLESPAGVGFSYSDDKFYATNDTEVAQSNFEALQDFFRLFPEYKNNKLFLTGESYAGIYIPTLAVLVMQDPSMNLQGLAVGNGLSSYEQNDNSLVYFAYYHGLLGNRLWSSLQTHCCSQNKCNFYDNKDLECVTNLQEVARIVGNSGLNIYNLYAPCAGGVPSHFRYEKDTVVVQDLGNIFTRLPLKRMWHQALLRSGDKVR
Recombinant human cathepsin A, sequence (P10619 327-480): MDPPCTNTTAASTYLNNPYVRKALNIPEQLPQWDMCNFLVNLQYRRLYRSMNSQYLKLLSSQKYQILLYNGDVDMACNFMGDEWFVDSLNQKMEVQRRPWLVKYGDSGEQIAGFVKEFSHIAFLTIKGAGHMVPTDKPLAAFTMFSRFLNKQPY

| Structure (SMILES) | IC50 [nM] |
| --- | --- |
| Cc1nnc(C(CC(=O)O)c2cccc(-c3cccnc3)c2)o1 (stereo not shown) [compound 147] | 6710 |
| Cc1cnc(C(CC(=O)O)c2cc(F)cc(-c3ccccc3F)c2)s1 (stereo not shown) [compound 122] | 780 |
| Cc1cnc(C(CC(=O)O)c2cc(F)cc(-c3cccc(OC(F)(F)F)c3)c2)s1 (stereo not shown) [compound 124] | 975 |
| Cc1nnc(C(CC(=O)O)c2cccc(-c3ccccc3C#N)c2)o1 (stereo not shown) [compound 146] | 4740 |
| CC(=O)c1ccccc1-c1cc(F)cc(C(CC(=O)O)c2ncco2)c1 (stereo not shown) [compound 136] | 2030 |
| Cc1cnc(C(CC(=O)O)c2cc(F)cc(-c3cc(F)ccc3F)c2)s1 (stereo not shown) [compound 120] | 649 |
| Cc1ccc(F)c(-c2cc(F)cc(C(CC(=O)O)c3ncco3)c2)c1 (stereo not shown) [compound 123] | 903 |

Other lines, results leading:

| IC50 [nM] | Structure (SMILES) |
| --- | --- |
| 1560 | Cc1cnc(C(CC(=O)O)c2cc(Cl)cc(-c3ccncc3F)c2)s1 (stereo not shown) [compound 117] |
| 20600 | Cc1nnc(C(CC(=O)O)c2cccc(-c3ccncc3)c2)o1 (stereo not shown) [compound 148] |
| 1700 | Cc1cnc(C(CC(=O)O)c2cc(F)cc(-c3ccccc3C(=O)N(C)C)c2)s1 (stereo not shown) [compound 132] |
| 1440 | Cc1cnc(C(CC(=O)O)c2cc(Cl)cc(-c3ccccc3C(=O)N(C)C)c2)s1 (stereo not shown) [compound 116] |
| 1720 | CC(=O)c1ccccc1-c1cccc(C(CC(=O)O)c2nnc(C)o2)c1 (stereo not shown) [compound 145] |
| 1230 | Cc1cnc(C(CC(=O)O)c2cc(F)cc(-c3ccccc3C(N)=O)c2)s1 (stereo not shown) [compound 127] |
| 1330 | Cc1cnc(C(CC(=O)O)c2cc(F)cc(-c3cccnc3)c2)s1 (stereo not shown) [compound 128] |
| 707 | CC(=O)c1ccccc1-c1cc(F)cc(C(CC(=O)O)c2ncc(C)s2)c1 (stereo not shown) [compound 121] |
| 8650 | Cc1cnc(C(CC(=O)O)c2cc(F)cc(-c3ccncc3)c2)s1 (stereo not shown) [compound 139] |
| 488 | Cc1cccc(-c2cc(F)cc(C(CC(=O)O)c3ncco3)c2)c1F (stereo not shown) [compound 119] |

same assay, conditions: read-out: CATHA IC50

| Structure (SMILES) | IC50 [nM] |
| --- | --- |
| CCOc1cccc(-c2cccc(C(CC(=O)O)c3nccs3)c2)c1 (stereo not shown) [compound 24] | 1500 |
| COc1ccc(-c2ccc(Cl)cc2)cc1C(CC(=O)O)c1ncc(C)s1 (stereo not shown) [compound 76] | 3200 |
| COc1ccc(-c2ccc(C(F)(F)F)cc2)cc1C(CC(=O)O)c1ncc(C)s1 (stereo not shown) [compound 83] | 4380 |
| Cc1cc(-c2cccc(C(CC(=O)O)c3nccs3)c2)n(C)n1 (stereo not shown) [compound 40] | 9540 |
| COc1ccc(-c2ccccc2Cl)cc1C(CC(=O)O)c1ncc(C)s1 (stereo not shown) [compound 88] | 6690 |
| CCCOc1ccc(F)c(-c2cccc(C(CC(=O)O)c3nccs3)c2)c1 (stereo not shown) [compound 20] | 1110 |
| O=C(O)CC(c1cccc(-c2ccccc2Cl)c1)c1nccs1 (stereo not shown) [compound 8] | 2040 |
| COc1ccc(-c2cccc(F)c2Cl)cc1C(CC(=O)O)c1ncc(C)s1 (stereo not shown) [compound 82] | 4010 |
| COc1ccc(-c2ccc(OC)c(C(CC(=O)O)c3ncc(C)s3)c2)c(F)c1 (stereo not shown) [compound 77] | 3270 |
| O=C(O)CC(c1cccc(-c2ccc(Cl)c(OCc3ccccc3)c2)c1)c1nccs1 (stereo not shown) [compound 38] | 7870 |
| COc1cccc(-c2cccc(C(CC(=O)O)c3nccs3)c2)c1F (stereo not shown) [compound 17] | 588 |
| O=C(O)CC(c1cccc(-c2ccncc2F)c1)c1nccs1 (stereo not shown) [compound 47] | 24800 |
| COc1ccc(-c2cccc(C(CC(=O)O)c3nccs3)c2)cn1 (stereo not shown) [compound 39] | 8350 |
| O=C(O)CC(c1cccc(-c2cccc(Cl)c2)c1)c1nccs1 (stereo not shown) [compound 5] | 967 |
| COc1ccc(-c2cc(C)ccc2F)cc1C(CC(=O)O)c1ncc(C)s1 (stereo not shown) [compound 86] | 5680 |
| COc1ccc(-c2cccc(Cl)c2F)cc1C(CC(=O)O)c1ncc(C)s1 (stereo not shown) [compound 61] | 954 |

| Structure (SMILES) | IC50 [nM] |
| --- | --- |
| COc1cccc(-c2cccc(C(CC(=O)O)c3ncc(C)s3)c2)c1F (stereo not shown) [compound 51] | 397 |
| COc1ccc(-c2cccc(OC(F)(F)F)c2)cc1C(CC(=O)O)c1ncc(C)s1 (stereo not shown) [compound 96] | 18100 |
| COc1ccc(-c2cccc(C)c2)cc1C(CC(=O)O)c1ncc(C)s1 (stereo not shown) [compound 90] | 7120 |
| COc1ccc(-c2cccc(F)c2)cc1C(CC(=O)O)c1ncc(C)s1 (stereo not shown) [compound 70] | 1960 |
| COc1ccc(-c2ccc(F)cc2F)cc1C(CC(=O)O)c1ncc(C)s1 (stereo not shown) [compound 74] | 2650 |
| Cc1cccc(-c2cccc(C(CC(=O)O)c3nccs3)c2)c1Cl (stereo not shown) [compound 4] | 797 |
| COc1cc(-c2cccc(C(CC(=O)O)c3nccs3)c2)ccc1O (stereo not shown) [compound 29] | 2280 |
| Cc1cnc(C(CC(=O)O)c2cc(Cl)cc(-c3cccnc3)c2)s1 (stereo not shown) [compound 115] | 1060 |
| COc1ccc(-c2ccc(OC(F)(F)F)cc2)cc1C(CC(=O)O)c1ncc(C)s1 (stereo not shown) [compound 89] | 6730 |
| COc1ccc(-c2ccccc2C(N)=O)cc1C(CC(=O)O)c1ncc(C)s1 (stereo not shown) [compound 97] | 19300 |
| CC(=O)c1ccccc1-c1cccc(C(CC(=O)O)c2ncc(C)s2)c1 (stereo not shown) [compound 55] | 2300 |
| N#CCOc1ccc(-c2cccc(C(CC(=O)O)c3nccs3)c2)cc1 (stereo not shown) [compound 32] | 2420 |
| COc1ccc(-c2ccc(C)cc2C)cc1C(CC(=O)O)c1ncc(C)s1 (stereo not shown) [compound 75] | 3090 |
| COc1cc(F)c(-c2cccc(C(CC(=O)O)c3nccs3)c2)cc1F (stereo not shown) [compound 22] | 1320 |
| COc1ccc(-c2ccc(F)cc2Cl)cc1C(CC(=O)O)c1ncc(C)s1 (stereo not shown) [compound 87] | 6360 |

The remaining lines, values ahead:

| IC50 [nM] | Structure (SMILES) |
| --- | --- |
| 7780 | Cc1nc(C(CC(=O)O)c2cccc(Br)c2)sc1C (stereo not shown) [compound 2] |
| 335 | COc1cc(F)c(-c2cc(Cl)cc(C(CC(=O)O)c3ncc(C)s3)c2)c(F)c1 (stereo not shown) [compound 108] |
| 184 | Cc1cnc(C(CC(=O)O)c2cc(Cl)cc(-c3cccc(C)c3F)c2)s1 (stereo not shown) [compound 102] |
| 459 | Cc1cnc(C(CC(=O)O)c2cc(Cl)cc(-c3ccncc3)c2)s1 (stereo not shown) [compound 112] |
| 1390 | Nc1ccc(-c2cccc(C(CC(=O)O)c3nccs3)c2)c(F)n1 (stereo not shown) [compound 23] |
| 7540 | Cc1cnc(C(CC(=O)O)c2cccc(-c3cccnc3)c2)s1 (stereo not shown) [compound 58] |
| 563 | COc1ccc(-c2cc(Cl)cc(C(CC(=O)O)c3ncc(C)s3)c2)c(F)c1 (stereo not shown) [compound 113] |
| 769 | Cn1nc(-c2cccc(C(CC(=O)O)c3nccs3)c2)c2ccccc21 (stereo not shown) [compound 18] |
| 2720 | O=C(O)CC(c1cccc(-c2cccc(F)c2Cl)c1)c1nccs1 (stereo not shown) [compound 11] |
| 631 | Cc1cnc(C(CC(=O)O)c2cccc(-c3ccccc3F)c2)s1 (stereo not shown) [compound 53] |
| 2430 | O=C(O)CC(c1cccc(-c2ccc(OCc3ccccc3)c(F)c2)c1)c1nccs1 (stereo not shown) [compound 33] |
| 1590 | COc1ccc(-c2ccc(C)cc2)cc1C(CC(=O)O)c1ncc(C)s1 (stereo not shown) [compound 68] |
| 23600 | O=C(O)CC(c1cccc(-c2ccnc(F)c2)c1)c1nccs1 (stereo not shown) [compound 46] |
| 1200 | COc1ccc(-c2cc(F)ccc2C)cc1C(CC(=O)O)c1ncc(C)s1 (stereo not shown) [compound 64] |
| 1250 | COc1ccc(-c2cc(F)ccc2Cl)cc1C(CC(=O)O)c1ncc(C)s1 (stereo not shown) [compound 66] |
| 1890 | CC(C)(C)c1cccc(-c2cccc(C(CC(=O)O)c3nccs3)c2)c1 (stereo not shown) [compound 1] |

| IC50 [nM] | Structure (SMILES) |
| --- | --- |
| 987 | O=C(O)CC(c1cccc(-c2ccc3c(c2)OCCO3)c1)c1nccs1 (stereo not shown) [compound 19] |
| 1670 | CCCOc1cccc(-c2cccc(C(CC(=O)O)c3nccs3)c2)c1 (stereo not shown) [compound 26] |
| 1750 | O=C(O)CC(c1cccc(-c2ccc(Cl)cc2)c1)c1nccs1 (stereo not shown) [compound 7] |
| 2480 | Cc1cccc(-c2cccc(C(CC(=O)O)c3nccs3)c2)c1C (stereo not shown) [compound 9] |
| 7770 | COc1ccc(-c2cccc(C(F)(F)F)c2)cc1C(CC(=O)O)c1ncc(C)s1 (stereo not shown) [compound 91] |
| 406 | Cc1cnc(C(CC(=O)O)c2cc(Cl)cc(-c3cccc(OC(F)(F)F)c3)c2)s1 (stereo not shown) [compound 111] |
| 8800 | COc1ccc(-c2ccc(C#N)cc2)cc1C(CC(=O)O)c1ncc(C)s1 (stereo not shown) [compound 93] |
| 354 | Cc1cnc(C(CC(=O)O)c2cc(Cl)cc(-c3cccc(F)c3F)c2)s1 (stereo not shown) [compound 109] |
| 4300 | O=C(O)CC(c1cccc(-c2ccc(F)cc2)c1)c1nccs1 (stereo not shown) [compound 14] |
| 1670 | Cc1c(Cl)cccc1-c1cccc(C(CC(=O)O)c2nccs2)c1 (stereo not shown) [compound 6] |
| 13600 | Cc1cnc(C(CC(=O)O)c2cccc(-c3cncc(C(=O)N4CCOCC4)c3)c2)s1 (stereo not shown) [compound 59] |
| 22600 | N#Cc1ccc(-c2cccc(C(CC(=O)O)c3nccs3)c2)cn1 (stereo not shown) [compound 45] |
| 2460 | O=C(O)CC(c1cccc(-c2cccc(OCC(F)(F)F)c2)c1)c1nccs1 (stereo not shown) [compound 34] |
| 232 | Cc1ccc(F)c(-c2cc(Cl)cc(C(CC(=O)O)c3ncc(C)s3)c2)c1 (stereo not shown) [compound 105] |
| 5560 | COc1cccc(-c2ccc(OC)c(C(CC(=O)O)c3ncc(C)s3)c2)c1 (stereo not shown) [compound 85] |

Reference: patent publication US9199947B2, “Biaryl-propionic acid derivatives and their use as pharmaceuticals” (SANOFI, priority 2013, dated 2015)
